Data from US12692232B2, “Indole carboxamide compound, preparation therefor and use thereof” (NANJING RUISHUNING MEDICAL TECHNOLOGY CO., LTD., priority 2021, dated 2026).

Assays:
TRPC3 protein = target: T1, TRPC3 protein (Homo sapiens, UniProt Q13507); test: MST binding to TRPC3 protein; settings: for affinity strength to TRPC6 protein higher than to TRPC3 protein: MST Kd ratio
T1 sequence (Q13507 1-921): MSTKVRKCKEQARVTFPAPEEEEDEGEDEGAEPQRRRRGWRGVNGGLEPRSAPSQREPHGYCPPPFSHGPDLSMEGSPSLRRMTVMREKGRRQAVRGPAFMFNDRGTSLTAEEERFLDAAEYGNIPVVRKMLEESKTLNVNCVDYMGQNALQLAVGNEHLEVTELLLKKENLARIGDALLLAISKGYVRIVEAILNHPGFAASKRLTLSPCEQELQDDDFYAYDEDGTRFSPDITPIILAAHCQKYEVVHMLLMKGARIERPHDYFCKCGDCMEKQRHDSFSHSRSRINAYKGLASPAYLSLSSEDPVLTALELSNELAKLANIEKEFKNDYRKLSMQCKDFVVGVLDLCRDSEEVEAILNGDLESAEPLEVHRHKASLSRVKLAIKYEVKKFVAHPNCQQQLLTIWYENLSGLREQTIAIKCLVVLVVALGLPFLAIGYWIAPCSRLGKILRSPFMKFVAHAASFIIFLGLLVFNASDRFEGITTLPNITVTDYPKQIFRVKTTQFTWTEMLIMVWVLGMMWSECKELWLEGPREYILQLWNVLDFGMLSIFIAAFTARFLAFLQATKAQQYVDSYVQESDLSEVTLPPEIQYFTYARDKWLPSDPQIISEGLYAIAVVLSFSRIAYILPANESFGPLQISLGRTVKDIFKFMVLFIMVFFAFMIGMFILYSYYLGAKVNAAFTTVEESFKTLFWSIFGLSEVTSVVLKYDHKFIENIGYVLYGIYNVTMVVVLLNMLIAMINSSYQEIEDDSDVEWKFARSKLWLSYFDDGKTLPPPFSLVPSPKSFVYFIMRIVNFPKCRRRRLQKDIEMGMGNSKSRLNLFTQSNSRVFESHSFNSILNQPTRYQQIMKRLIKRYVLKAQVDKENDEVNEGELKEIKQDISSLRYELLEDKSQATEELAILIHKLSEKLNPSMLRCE
Description: Preparation and labelling of protein solution: TRPC6 protein dry powder (Alomone Labs, Israel) was prepared into a protein mother solution at a concentration of 10 μM using PBS-Buffer, and 35 μL of the protein stock solution was taken to the Buffer exchange A column, and centrifuged to obtain the Tris-removed protein. 34 μL Labelling Buffer was added to the Tris-removed protein according to the instructions of the Protein Fluorescent Labelling Kit (model L001). After mixing well, 3 μL of NT-647-NHS fluorescent dye was added and thus obtained mixture was incubated for 20 minutes. The protein-dye mixture was transferred to the purification B column, 300 μL of PBS-Buffer was added, and the target protein, i.e. fluorescent labelled protein TRPC6, was collected by centrifugation (with a final concentration of about 2 μM). 180 μL of target protein was mixed with 1620 μL of PBS-Buffer, and then 9 μl of Tween-20 were added thereto. Thus the resulting mixture was mixed and then centrifuged to obtain the target protein solution.
Preparation of compound solutions: the compounds were prepared separately with DMSO to storage solutions with a concentration of […]. 10 μL of each storage solution was placed in a […] EP tube, 90 μL of PBS was added thereto and the resulting mixture was thoroughly mixed to prepare 100 μL of working solution at a concentration of 1 μM for later use. Ligand gradient dilutions were made for a total of 16 concentrations, and 10 μL of 10% DMSO-Buffer was added to each of the 15 gradients except gradient 1, followed by the addition of 10 μL of ligand working solution to gradients 1 and 2, respectively. The liquid in tube 2 was mixed and then 10 μL therein was taken into tube 3, and dilution was carried out in this manner until tube 16. Tube 16 was mixed and 10 μL therein was taken and discarded, and the remainder was kept for later use.
Detection and analysis: 10 μL of protein solution was added to the 16 compound gradient dilutions respectively and mixed, and the resultant mixtures were transferred to capillary tubes sequentially to start detection on machine. After loading the data, the MST analysis model and Kd Model were selected to obtain the fitting curve and dissociation constant (Kd).
The binding ability of the compounds of the present invention (as exemplified by the compounds 1-1 and 2-1 obtained in Examples 1 and 3) for other TRPC proteins (e.g., TRPC1, TRPC3, TRPC4, TRPC5, and TRPC7) was determined using the microscale thermophoresis (MST) method. The method was as follows:
The affinity of the compounds of the present invention with TRPC1, TRPC3, TRPC4, TRPC5 and TRPC7 proteins, respectively, was determined by the same method as in Example 5.

[1] = Stability at high temperature and high humidity (residual content); type: physicochemical
Description: The stability of compounds 1-1, 2-1 and the indole analogue 3-[(1-methyl-1H-indole-2-carbonyl) amino]propionic acid disclosed in CN2019107285315 was tested by experiments at high temperature and high humidity. The compounds were placed in 24-well plates, spread as a thin layer with a thickness of no more than 5 mm and placed in an oven at 60° C. for 10 days. Observation of appearance, TLC identification and determination of absorbance were carried out on the 5th day and the 10th day, respectively, in order to compare with the samples on the 0th day. An amount of compounds were taken into tightly closed brown colored penicillin bottles (the compounds were spread as a thin layer with a thickness of no more than 5 mm) and then placed into a tightly closed container with saturated NaCl solution and left at room temperature away from light for 10 days. Observation of appearance, TLC identification and determination of absorbance were carried out on the 5th day and the 10th day, respectively, in order to compare with the samples on the 0th day.

[2] = high humidity environment (saturated NaCl, room temperature, away from light), after 5 days
[3] = high humidity environment (saturated NaCl, room temperature, away from light), after 10 days
[4] = high temperature environment (oven at 60° C.), after 5 days
[5] = high temperature environment (oven at 60° C.), after 10 days

SMILES | affinity strength to TRPC6 protein higher than to TRPC3 protein (TRPC3 protein) | residual content [1, 2] | residual content [1, 3] | residual content [1, 4] | residual content [1, 5] | Kd (TRPC3 protein; MST)
Cn1c(C(=O)NCCC(=O)O)cc2ccccc21 [3-[(1-methyl-1H-indole-2-carbonyl)amino]propionic acid, reference compound] | 27 fold | 29.5±0.1% | 8.8±0.1% | 23.1±0.1% | 4.2±0.1% | –
CC(=O)OCCCNC(=O)c1c(C=O)c2ccccc2n1C [compound 1-1, propyl 3-[(3-formyl-1-methyl-1H-indole-2-carbonyl)amino]acetate] | 81 fold | 93.5±0.4% | 90.7±0.3% | 95.4±08% | 94.2±0.6% | –
Cn1c(C(=O)NCCCOC(=O)c2ccccc2)c(C=O)c2ccccc21 [compound 2-1] | 51 fold | 94.2±0.3% | 90.1±0.8% | 93.6±0.6% | 91.7±0.5% | 1400 nM
